Laboratory results taken from patent publication US10285981B2, “Compositions and methods for treating amyotrophic lateral sclerosis in responders” (KNOPP BIOSCIENCES LLC, priority 2013, dated 2019).
Read-outs that look alike come from different tables or passages of the source.

Assays:
[1] = system: dopamine receptors
[2] = system: subjects with ALS
From the text: Response is defined according to two criteria:
This analysis examined subgroup definitions based on both single and dual attribute criteria, and evaluated the performance of each subgroup with respect the two criteria above. To facilitate ranking of subgroups, we have defined a scoring metric which aggregates these two-dimensional scores into a single scalar called “score” in our report files. Larger scores are better: scores increase when mortality rates decrease, and when ALSFRS-R changes from baseline become more positive (i.e. score decreases are reduced). This scoring scheme is somewhat arbitrary; it merely serves to guide our maximization process and provide convenient rankings of subgroup quality. The definition of the score could certainly be altered to reflect different priorities on treatment effects with respect to mortality or disease progression. For this reason, we provide a complete spreadsheet of results, which can be re-sorted and re-ordered according to arbitrary balancing criteria.
1. Mortality for patients is defined by the value of the “end_status_study” field. Patients are deemed dead if and only if the value of this field is “DEATH”; any other value is interpreted as survival;
2. Disease symptom progression is measured in terms of the change in total ALSFRS-R score from baseline, as reported in the “change from baseline” attribute of each patient. Specifically, we take the value of “change from baseline” that is reported at the final measurement time for each patient.;
4. We impose minimum subgroup size filters on our results to exclude promising signals which arise due to sampling artifacts, or which would be too narrow for consideration in future studies. Analyses were run for minimum group sizes of both 50 patients (data not shown) and 100 patients (i.e. for a cutoff of N, we require at least N patients in that subgroup for both the treated and untreated groups).

[3] = system: subjects with ALS; remark: listed apart in the source
From the text: Subjects with possible, probable, probable laboratory-supported, or definite ALS as defined by the El Escorial criteria who had ALS symptoms for ≤24 months at the time of entry into the study and a slow vital capacity of ≥65% of predicted were eligible to participate in this study. This study is described in more detail in the Examples.
Eligible subjects were between 18-80 years of age with a clinical diagnosis of possible, laboratory-supported probable, probable, or definite ALS, either familial or sporadic, in accordance with the revised El Escorial criteria. Subjects were required to have had onset of first ALS symptoms ≤24 months before Day 1 and an upright vital capacity of ≥65% of predicted value for age, height, and gender at screening. […] Subjects had to be able to swallow oral medications on Day 1 (FIG. 1).
Clinic visits and telephone calls/home visits may have occurred on alternating months. The primary efficacy analysis was a Combined Assessment of Function and Survival (CAFS), based on changes from baseline in the ALS Functional Rating Score-Revised (ALSFRS-R) scores or time to death using follow-up data through 12 months. […] Efficacy data was evaluated using 2-sided tests with α=0.05 for the primary and secondary endpoints. Adverse events and other safety indices were monitored throughout the study.
The primary endpoint of the method of Example 2 was the Combined Assessment of Function and Survival (CAFS), a joint-rank test that is a valid statistical approach for analyzing functional outcomes adjusted for mortality. The CAFS ranks subjects' outcomes based on both time to death and change from baseline in ALSFRS-R score using follow-up data through 12 months. CAFS is predicated on the comparison of outcomes of each subject to all other subjects in the study. A higher rank is assigned to subjects who survive versus those who die, and the change from baseline in the ALSFRS-R is used to rank each survivor. A higher CAFS ranking indicates a better global clinical outcome.
The ALSFRS-R score, VC, and McGill QoL-SIS scores were summarized by treatment group with the rate of change estimate derived from a linear mixed-effects model. Linear decline of the ALSFRS-R score over time has been shown previously. […] A mixed-model analysis was used to fit a model that included time, treatment group, and the interaction between time and treatment group simultaneously. The estimated coefficient of time, the slope, or rate of change, for each treatment group was used to test for differences between the treatment groups. Coefficient of time estimate along with its standard error was reported.

[4] = system: subjects with ALS; conditions: for decline in levels of serum creatinine: Part One; for mean decline in serum creatinine: Week 28
From the text: Therefore, the Part 2, Week 28 visit was pre-specified as the primary time-point for all Part 2 data analyses.

[5] = system: humans; conditions: cited from earlier work
[6] = system: rodents; conditions: single oral dose, and above; cited from earlier work
[7] = system: monkeys; conditions: single oral dose; cited from earlier work
[8] = system: dogs; conditions: single oral dose, and above; cited from earlier work
[9] = system: rodents; conditions: approximately
[10] = system: ALS subjects; conditions: human, in vivo
[11] = system: ALS subjects; conditions: even after prolonged treatment; cited from earlier work
[12] = system: subjects with ALS; conditions: larger Phase III study; cited from earlier work
[13] = high-creatinine group, through 12 months

CCCN[C@@H]1CCc2nc(N)sc2C1 [dexpramipexole, (6R)-2-amino-4,5,6,7-tetrahydro-6-(propylamino)-benzothiazole]
functional affinity difference between pramipexole and dexpramipexole for dopamine receptors [1]: 10,000-20,000 folds | relative change in the mean ALSFRS-R change from baseline, treated vs untreated ([2]; definite diagnosis subgroup): −8.3% | abs_mort_rate_change: absolute difference in mortality rate, treated vs untreated ([2]; in vivo): −22.6% | mort rate change: relative change in mortality rate, treated vs untreated ([2]; in vivo): −67.9% | mortality rate lower for treated patients ([2]; in vivo): 22.6 percentage points | score: combined score of mortality and ALSFRS-R treatment effects ([2]; in vivo): 0.343 | trtd_mort_rate: mortality rate of treated patients ([2]; in vivo): 10.7% | relative change in the mean ALSFRS-R change from baseline, treated vs untreated ([2]; subgroup mean_pr_interval>184.5, minimum group size 100): −20.5% | abs_alsfrs_change: absolute difference in mean ALSFRS-R total scores, treated vs untreated ([2]; subgroup min_pr_interval>195): 5.623 points | alsfrs change: relative change in mean ALSFRS-R change from baseline, treated vs untreated ([2]; subgroup min_pr_interval>195, minimum group size 50): −26.6% | ALSFRS-R score change vs placebo group (exploratory analysis with covariate adjustment) ([3]; 300 mg group, Month 18): significant improvement | ALSFRS-R subdomain: behaviors associated with bulbar function, decline over baseline ([3]; 300 mg/day): less dramatic decline | ALSFRS-R subdomain: behaviors associated with fine motor skills ([3]; 300 mg/day): dose dependent improvement over baseline | combined assessment of function and survival (CAFS), least square means ([3]; high-creatinine group (baseline serum creatinine > about 72 μmol/L), 150 mg twice daily, through 12 months): 184.86 | slope of decline on the ALS Functional Rating Scale (Revised), least square means ([3]; high-creatinine group, 150 mg twice daily, through 12 months): −0.925 | ALSFRS-R slope of decline, improvement in least square means between treatment and placebo [3, 13]: 18% | CAFS improvement in least square means between treatment and placebo [3, 13]: 19% | rate of mortality (Kaplan-Meier analysis) ([3]; high-creatinine group, treatment group at 12 months): 10.3% | decline in levels of serum creatinine ([4]; 50 mg group): 0.05 | decline in levels of serum creatinine ([4]; 150 mg group): 0.06 | decline in levels of serum creatinine ([4]; 300 mg group): 0.0 | combined assessment of function and survival (CAFS) ([4]; Part Two, 300 mg daily dose, p=0.040): significantly reduced reduction | mean decline in serum creatinine ([4]; Part Two, daily dose 50 mg): −0.12 | mean decline in serum creatinine ([4]; Part Two, daily dose 300 mg): zero

CCCN[C@H]1CCc2nc(N)sc2C1 [pramipexole, (6S)-2-amino-4,5,6,7-tetrahydro-6-(propylamino)benzothiazole]
maximally tolerated dose for humans ([5]; Boehringer Ingelheim product insert for Mirapex): 4.5 milligrams per day | initial single dose not tolerated ([5]; human subjects): greater than 0.20 milligrams | dose shown to cause somnolence ([5]; humans, as low as): 1.5 milligrams | dose at which death occurred [6]: 70-105 milligrams per kilogram | dose at which major excitation was displayed [7]: 3.5 milligrams per kilogram | dose at which vomiting occurred [8]: ≥ 0.0007 milligrams per kilogram | human dose equivalent to the rodent lethal dose, 70 kilogram individual [9]: 500-850 milligrams

Nc1nc2ccc(OC(F)(F)F)cc2s1 [riluzole]
headaches reported, subjects receiving riluzole vs those not receiving riluzole [10]: four times as many subjects | effect on ALSFRS-R score [11]: has not demonstrated any effect

CC(=O)N1N=C(c2ccc(N)cc2)c2cc3c(cc2C[C@H]1C)OCO3 [talampanel]
treatment effects in ALS [12]: failed to show any treatment effects
